From patent publication US20130102829A1, “METHOD FOR TREATING OSTEOSARCOMA BY BORON NEUTRON CAPTURE THERAPY USING BORIC ACID AS A BORON DRUG” (National Tsing Hua University, priority 2011, published 2013)
Read-outs that look alike come from different tables or passages of the source.

Experiments:
brain tumors = conditions: 1950s; cited from earlier work
[1] = rat, in vivo
Method: Before measuring boron concentration of a sample, it needs to undergo microwave digestion first. A sample was initially placed into a Teflon high-pressure digestion vessel, then added with 3 mL of concentrated nitric acid (14N, 65%) and 0.5 mL of hydrogen peroxide (30-35%), and the vessel was sealed before placing the vessel into a microwave digestion system (MLS 1200 Milestone, Italia) for sample decomposition. […] The sample subsequently turned into a clear solution after complete digestion. After diluting the sample with deionized water, an Inductively Coupled Plasma Atomic Emission Spectrometer (ICP-AES, OPTIMA 2000 DV, PerkinElmer Instruments) was used to measure the boron concentration of the sample. For the conditions of the analysis, the temperature of argon plasma was set at 6000-7000 K; the analytical wavelength was set at 249.773 nm, and the liquid uptake rate was set at approximately 2 mL/min; the operating voltage after the formation of plasma was set at 40 V.
(§1) Male SD rats were the animals used in this osteosarcoma-bearing animal-model. Prior to the experiments, the rats were bred in cage for at least one week at temperature of 22° C. and humidity of 30-70%. An artificial lighting condition (12 h on/12 h off) was maintained in the room. The animal feeds and water were unlimited. The tumor cells used in the experiments were UMR-106 cell strain (Rat osteogenic sarcoma cell line, BCRC No: 60270). Firstly, obtained the UMR-106 tumor cells in exponential growth phase from a culture flask, then centrifuged the UMR-106 cells obtained by subculture method, followed by re-suspending the cells in a media without serum or antibiotics, and dividing the suspension into separate centrifuge microtubes. Placed the Matrigel Matrix (BD Bioscience), a syringe, and the centrifuge microtubes with the cell suspension on ice to be cooled for later use. Before implanting the tumor cells, the UMR-106 cell suspension was mixed with an equal amount of Matrigel first.
A SD rat was firstly anesthetized by using 2.5% Isoflurane (Halocarbon Laboratories, River Edge, N.J.), followed by shaving and disinfecting a surgical area on the rat for implanting the tumor cells. […] After the implantation, the rats were released back into the cage, and their activities and body conditions were monitored continuously. […]
Using the boric acid aqueous solution as a boron drug to do the animal experiments, drugs were administered to the osteosarcoma-bearing rats (six-week old, approximately 200-250 g in body weight) via tail vein injection, and the dose of the boric acid drugs was: 25 mg ^10B/kg BW. The rats' body weights needed to be measured and recorded before the experiments for preparing the boric acid aqueous solution. […]

UMR-106 osteosarcoma = test system: UMR-106 osteosarcoma
Method: as §1
A SD rat was firstly anesthetized by using 2.5% Isoflurane (Halocarbon Laboratories, River Edge, N.J.), followed by shaving and disinfecting a surgical area on the rat for implanting the tumor cells. A 250 μL micro-syringe was fitted with a 25 gauge needle before extracting 200 μL of a mixed solution containing the cells and Matrigel (10×10^6 cells/200 μL). Then the needle was used to penetrate a SD rat's distal femur, which is the femoral condyle; the syringe was rotated in order to penetrate the femur and the spongy bone, and ensured it had protruded out of the femur by touching with a finger. Subsequently, 100 μL of the tumor cell solution was slowly injected into the extra-skeletal muscular tissues, and 100 μL of the solution was injected into the epiphysis and the metaphysis of the femur (at 0.5 cm deep from skin surface) after slowly retracting the needle. After the implantation, the rats were released back into the cage, and their activities and body conditions were monitored continuously. The animals were immunosuppressed by daily administration of cyclosporin A (10 mg/kg, Sandimmun®, Novartis) for total 7 days from the 3rd to the 9th day after UMR-106 cells injection.
(§2) The experimental animals were divided into three groups; a tumor control group (in which the rats received implantation of tumor cells but not BNCT treatment), a high-dose BNCT group, and a low-dose BNCT group.
After the SD rats were implanted with tumor cells for 11 days, the BNCT treatment and subsequent evaluation of biological effects were commenced. Considering the pharmacokinetics and the changes in boron concentration distribution in the rats after the drug administration, BNCT irradiation was carried out at adequate times after administering boric acid. The rats were anesthetized by gas, then intravenously injected with a boric acid of 25 mg ^10B/kg BW. Fifteen minutes before the neutron irradiation, the rats were injected with Atropine and Zoletil to allow the rats to be anesthetized longer. Each of the rats was placed on a fixing frame with its tumor-bearing area close to the beam aperture of the Tsing Hua Open-pool Reactor (THOR), and then neutron irradiation was performed at a specific neutron flux and irradiation time to achieve a certain total neutron fluence. For the reactor power at 1.2 MW, the neutron fluxes at the central beam exit were 1.34×10^8, 1.07×10^9, and 7.66×10^7 n/cm^2/sec, respectively for thermal, epithermal, and fast neutrons. [Liu, Y. H., Tsai, P. E., Liu, H. M., Jiang, S. H., “Characterization of a BNCT beam using neutron activation and indirect neutron radiography,” Radiation Measurements, vol. 45, pp. 1167-1170, 2010.] After the irradiation, the actual irradiation time and reactor power were adjusted by using the on-line neutron monitoring system for THOR.

[2] = rat, in vivo; remark: listed apart in the source
Text: as §2
After the SD rats were implanted with tumor cells for 11 days, the BNCT treatment and subsequent evaluation of biological effects were commenced. Considering the pharmacokinetics and the changes in boron concentration distribution in the rats after the drug administration, BNCT irradiation was carried out at adequate times after administering boric acid. The rats were anesthetized by gas, then intravenously injected with a boric acid of 25 mg ^10B/kg BW. Fifteen minutes before the neutron irradiation, the rats were injected with Atropine and Zoletil to allow the rats to be anesthetized longer. […]
Boric acid (25 mg 10B/kg) were injected into the tumor-bearing rats via the tail vein before the irradiation. […] Consequently, the doses received in each of the organs were calculated according to the actual irradiation times and powers, along with simulations of dose rates in the rats' organs from the MCNP application. […]

[3] = 60 mg of ^10B stable isotope per kilogram of human body weight; cited from earlier work
[4] = in vivo; cited from earlier work
[5] = oral administration of BA to rats or human; cited from earlier work
[6] = in vivo and in vitro studies; binding to the cis-hydroxy groups; cited from earlier work
Glioblastoma multiforme = conditions: in vivo; cited from earlier work

O=BOB(O)OB(O)OB=O [Borax, sodium borate]
outcome of BNCT clinical trials (brain tumors): unsuccessful

OB(O)O [boric acid]
boron concentration of extra-skeletal tumor tissues relative to blood ([1]; male, Sprague-Dawley, 1 h): approximately 1.2 times
boron concentration of tumor-bearing distal femurs relative to blood ([1]; male, Sprague-Dawley, 1 h): approximately 2.1 times
boron concentration of tumor-bearing proximal femurs relative to blood ([1]; male, Sprague-Dawley, 1 h): approximately 2.6 times
boron concentrations in the soft tissues compared with blood [1]: similar
histopathological finding of extra-skeletal tumor region (UMR-106 osteosarcoma; 80th day after BNCT, hematoxylin and eosin stain): no-viable tumor cells were found
reduction of the sizes of the tumors (UMR-106 osteosarcoma; 80th day after the irradiation): ~90%
bone healing on radiographs (UMR-106 osteosarcoma; high dose day 5 to 16, low dose day 5 to 23 after BNCT): the bone appeared to be healing gradually
relative tumor area (UMR-106 osteosarcoma; high-dose BNCT group (11.0 Gy), 5th day after BNCT, area divided by area on day of BNCT): 1.1
relative tumor area (UMR-106 osteosarcoma; high-dose BNCT group, 10th day after BNCT): 0.7
relative tumor area (UMR-106 osteosarcoma; high-dose BNCT group, 30th day after BNCT): 0.2
relative tumor area (UMR-106 osteosarcoma; high-dose BNCT group, 60th day after BNCT): 0.2
relative tumor area (UMR-106 osteosarcoma; high-dose BNCT group, 80th day after BNCT): 0.1
relative tumor area (UMR-106 osteosarcoma; low-dose BNCT group (5.8 Gy), 5th day after BNCT): 1.3
relative tumor area (UMR-106 osteosarcoma; low-dose BNCT group, 10th day after BNCT): 1.1
relative tumor area (UMR-106 osteosarcoma; low-dose BNCT group, 30th day after BNCT): 0.3
relative tumor area (UMR-106 osteosarcoma; low-dose BNCT group, 60th day after BNCT): 0.2
relative tumor area (UMR-106 osteosarcoma; low-dose BNCT group, 80th day after BNCT): 0.2
gastro-intestinal reactions, weight loss and other discomfort after the irradiation [2]: temporary side-effects
adverse effect of an injection dose of boric acid [3]: no permanent adverse effect
ratio of boron concentrations in blood and soft tissue [4]: one
factor by which boron concentrations in bones exceeded those in blood [5]: 4
affinity with hydroxyapatite of bone [6]: strong affinity

borocaptate sodium [BSH]
ratio of boron concentrations between tumors and normal tissues (Glioblastoma multiforme): does not result in higher ratio
